Reference: US8658604B2, “Template-fixed beta-hairpin peptidomimetics with protease inhibitory activity” (Polyphor Ltd, priority 2005, dated 2014)
pIC50: −log10 of the molar value. Where a SMILES comes first, the peptide text is derived from it.

Tests used:
[1] = target: Coagulation Factor Xa, from uman plasma (Homo sapiens, UniProt P00742); test: Enzymatic assay, coagulation factor Xa
[2] = test system: Tryptase, from human lung; test: Enzymatic assay, tryptase; conditions: at 100 μM
[3] = target: T1, Elastase from human neutrophils (Homo sapiens, UniProt P08246); test: Enzymatic assay, elastase; conditions: Elastase IC50
T1 sequence (P08246 30-267): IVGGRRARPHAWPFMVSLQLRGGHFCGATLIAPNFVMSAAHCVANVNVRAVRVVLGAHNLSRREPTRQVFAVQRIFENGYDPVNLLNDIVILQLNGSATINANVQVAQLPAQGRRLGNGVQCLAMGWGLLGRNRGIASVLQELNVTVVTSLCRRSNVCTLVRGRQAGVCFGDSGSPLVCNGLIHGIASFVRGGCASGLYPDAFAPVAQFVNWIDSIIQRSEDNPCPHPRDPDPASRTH

[4] = target: Chymotrypsin, from human pancreas (Homo sapiens, UniProt P17538); test: Enzymatic assay, chymotrypsin; conditions: at 100 μM
[5] = target: Thrombin, from Human Plasma (Homo sapiens, UniProt P00734); test: Enzymatic assay, thrombin
[6] = target: Trypsin, from human pancreas (Homo sapiens, UniProt P07477); test: Enzymatic assay, trypsin; conditions: at 100 μM
Chymase, from human skin = target: T2, Chymase, from human skin (Homo sapiens, UniProt P23946); test: Enzymatic assay, chymase
T2 sequence (P23946 22-247): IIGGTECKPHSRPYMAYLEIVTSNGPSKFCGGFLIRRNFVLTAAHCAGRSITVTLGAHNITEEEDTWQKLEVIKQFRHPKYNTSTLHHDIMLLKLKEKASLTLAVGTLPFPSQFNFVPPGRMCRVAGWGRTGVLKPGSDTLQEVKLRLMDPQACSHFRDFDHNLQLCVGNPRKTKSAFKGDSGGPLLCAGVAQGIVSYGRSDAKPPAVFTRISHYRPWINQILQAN

[7] = target: T3, CathepsinG, from human neutrophils (Homo sapiens, UniProt P08311); test: Enzymatic assay, cathepsin G
T3 sequence (P08311 21-244): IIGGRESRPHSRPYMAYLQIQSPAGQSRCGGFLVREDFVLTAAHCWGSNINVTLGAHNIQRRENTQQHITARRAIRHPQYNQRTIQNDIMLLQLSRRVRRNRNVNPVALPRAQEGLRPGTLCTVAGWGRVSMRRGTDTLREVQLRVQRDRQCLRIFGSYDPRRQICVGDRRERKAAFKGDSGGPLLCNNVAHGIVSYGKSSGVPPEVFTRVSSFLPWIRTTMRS

[8] = target: Urokinase from human urine (Homo sapiens, UniProt P00749); test: Enzymatic assay, urokinase

Coagulation Factor Xa, from uman plasma, sequence (P00742 235-488 limits assumed): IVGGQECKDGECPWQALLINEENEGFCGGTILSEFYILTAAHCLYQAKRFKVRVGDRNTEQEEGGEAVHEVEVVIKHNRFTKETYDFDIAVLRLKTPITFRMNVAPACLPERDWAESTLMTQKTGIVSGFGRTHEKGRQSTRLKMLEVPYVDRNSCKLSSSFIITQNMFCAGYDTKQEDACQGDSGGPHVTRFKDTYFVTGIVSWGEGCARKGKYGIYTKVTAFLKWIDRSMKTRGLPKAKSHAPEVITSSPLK
Coagulation Factor Xa, from uman plasma, sequence (P00742 41-179 limits assumed): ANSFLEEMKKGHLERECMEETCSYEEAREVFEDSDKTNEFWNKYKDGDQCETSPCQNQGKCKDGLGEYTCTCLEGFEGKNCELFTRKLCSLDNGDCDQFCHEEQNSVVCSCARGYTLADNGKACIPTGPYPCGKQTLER
Chymotrypsin, from human pancreas, sequence (P17538 19-263): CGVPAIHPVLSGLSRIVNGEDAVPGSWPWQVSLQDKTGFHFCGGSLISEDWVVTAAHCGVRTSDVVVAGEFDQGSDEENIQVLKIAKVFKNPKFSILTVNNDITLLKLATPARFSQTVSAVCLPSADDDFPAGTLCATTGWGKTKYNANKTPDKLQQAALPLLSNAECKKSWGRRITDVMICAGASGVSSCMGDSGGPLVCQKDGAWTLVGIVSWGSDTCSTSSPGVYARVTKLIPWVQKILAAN

SMILES	FXa at 100 μM % [1] [%]	Tryptase At 100 μM % [2] [%]	pIC50 [3]	Chymotrypsin at 100 μM % [4] [%]	Thrombin at 100 μM % [5] [%]	Trypsin at 100 μM % [6] [%]	Chymase at 100 μM % (Chymase, from human skin) [%]	Cathepsin G at 100 μM % [7] [at 100%]	Urokinase at 100 μM % [8] [%]	pIC50 ([7]; read-out: Cathepsin G IC50)
CC[C@H](C)[C@@H]1NC(=O)[C@H](CO)NC(=O)[C@H](C)NC(=O)[C@H]([C@@H](C)O)NC(=O)[C@@H]2CSSC[C@H](NC(=O)[C@H](CCC(N)=O)NC(=O)[C@@H]3CCCN3C(=O)[C@@H]3CCCN3C1=O)C(=O)N[C@@H](CCC(N)=O)C(=O)N1CCC[C@@H]1C(=O)N1CCC[C@H]1C(=O)N[C@@H](CCc1ccccc1)C(=O)N2 [Ex. 143] (HELM PEPTIDE1{[O=C([C@H](CCc1ccccc1)N[*:1])[*:2]].C.T.A.S.I.P.P.Q.C.Q.[dP].P}$PEPTIDE1,PEPTIDE1,2:R3-10:R3|PEPTIDE1,PEPTIDE1,1:R1-13:R2$$$V2.0)	0	18	7.82	91	12	12	0	28	8	
CCCC[C@@H]1NC(=O)[C@@H]2CCCN2C(=O)[C@H]2CCCN2C(=O)[C@H](Cc2ccccc2Cl)NC(=O)[C@@H]2CSSC[C@H](NC1=O)C(=O)N[C@@H]([C@@H](C)O)C(=O)N[C@@H](C)C(=O)N[C@@H](CO)C(=O)N[C@@H]([C@@H](C)CC)C(=O)N1CCC[C@H]1C(=O)N1CCC[C@H]1C(=O)N[C@@H](CCC(N)=O)C(=O)N2 [Ex. 144] (HELM PEPTIDE1{[Nle].C.T.A.S.I.P.P.Q.C.[O=C([C@H](Cc1ccccc1Cl)N[*:1])[*:2]].[dP].P}$PEPTIDE1,PEPTIDE1,2:R3-10:R3|PEPTIDE1,PEPTIDE1,1:R1-13:R2$$$V2.0)	0	0	8.12	80.6	3.6	7.5	0		6.2	4.67
CC[C@H](C)[C@@H]1NC(=O)[C@H](CO)NC(=O)[C@H](C)NC(=O)[C@H]([C@@H](C)O)NC(=O)[C@@H]2CSSC[C@H](NC(=O)[C@H](CCC(N)=O)NC(=O)[C@@H]3CCCN3C(=O)[C@@H]3CCCN3C1=O)C(=O)N[C@@H](Cc1ccccc1)C(=O)N1CCC[C@@H]1C(=O)N1CCC[C@H]1C(=O)N[C@@H](CCc1ccccc1)C(=O)N2 [Ex. 146] (HELM PEPTIDE1{[O=C([C@H](CCc1ccccc1)N[*:1])[*:2]].C.T.A.S.I.P.P.Q.C.F.[dP].P}$PEPTIDE1,PEPTIDE1,2:R3-10:R3|PEPTIDE1,PEPTIDE1,1:R1-13:R2$$$V2.0)	1	22	7.92	87	11	3	0	1	0	
CCCCCCCC[C@@H]1NC(=O)[C@@H]2CCCN2C(=O)[C@H]2CCCN2C(=O)[C@H](CCC(N)=O)NC(=O)[C@@H]2CSSC[C@H](NC1=O)C(=O)N[C@@H]([C@@H](C)O)C(=O)N[C@@H](C)C(=O)N[C@@H](CO)C(=O)N[C@@H](CCCCCCCC)C(=O)N1CCC[C@H]1C(=O)N1CCC[C@H]1C(=O)N[C@@H](CCC(N)=O)C(=O)N2 [Ex. 148] (HELM PEPTIDE1{[CCCCCCCC[C@H](N[*:1])C(=O)[*:2]].C.T.A.S.[CCCCCCCC[C@H](N[*:1])C(=O)[*:2]].P.P.Q.C.Q.[dP].P}$PEPTIDE1,PEPTIDE1,2:R3-10:R3|PEPTIDE1,PEPTIDE1,1:R1-13:R2$$$V2.0)	8	30	7.96	91	32	9	7	52	12	
CCCCCCCC[C@@H]1NC(=O)[C@H](CO)NC(=O)[C@H](C)NC(=O)[C@H]([C@@H](C)O)NC(=O)[C@@H]2CSSC[C@H](NC(=O)[C@H](CCC(N)=O)NC(=O)[C@@H]3CCCN3C(=O)[C@@H]3CCCN3C1=O)C(=O)N[C@@H](CCC(N)=O)C(=O)N1CCC[C@@H]1C(=O)N1CCC[C@H]1C(=O)N[C@@H](CCc1ccccc1)C(=O)N2 [Ex. 153] (HELM PEPTIDE1{[O=C([C@H](CCc1ccccc1)N[*:1])[*:2]].C.T.A.S.[CCCCCCCC[C@H](N[*:1])C(=O)[*:2]].P.P.Q.C.Q.[dP].P}$PEPTIDE1,PEPTIDE1,2:R3-10:R3|PEPTIDE1,PEPTIDE1,1:R1-13:R2$$$V2.0)	11	9	8.07	84	16	8	0	56	16	
CCCCCCCC[C@@H]1NC(=O)[C@@H]2CCCN2C(=O)[C@H]2CCCN2C(=O)[C@H](Cc2ccc(O)cc2)NC(=O)[C@H]([C@@H](C)O)NC(=O)[C@H](CCC(N)=O)NC(=O)[C@@H]2CCCN2C(=O)[C@@H]2CCCN2C(=O)[C@H]([C@@H](C)CC)NC(=O)[C@H](CO)NC(=O)[C@H](C)NC(=O)[C@H]([C@@H](C)O)NC(=O)[C@H](CCC(N)=O)NC1=O [Ex. 154] (HELM PEPTIDE1{[CCCCCCCC[C@H](N[*:1])C(=O)[*:2]].Q.T.A.S.I.P.P.Q.T.Y.[dP].P}$PEPTIDE1,PEPTIDE1,1:R1-13:R2$$$V2.0)	0	15	8.08	4	7	0	0	27	1	
C[C@@H]1NC(=O)[C@H]([C@@H](C)O)NC(=O)[C@@H]2CSSC[C@H](NC(=O)[C@H](CCC(N)=O)NC(=O)[C@@H]3CCCN3C(=O)[C@@H]3CCCN3C(=O)[C@H](CC3CCCCC3)NC(=O)[C@H](CO)NC1=O)C(=O)N[C@@H](Cc1ccccc1)C(=O)N1CCC[C@@H]1C(=O)N1CCC[C@H]1C(=O)N[C@@H](CCc1ccccc1)C(=O)N2 [Ex. 155] (HELM PEPTIDE1{[O=C([C@H](CCc1ccccc1)N[*:1])[*:2]].C.T.A.S.[Cha].P.P.Q.C.F.[dP].P}$PEPTIDE1,PEPTIDE1,2:R3-10:R3|PEPTIDE1,PEPTIDE1,1:R1-13:R2$$$V2.0)	9	30	8.09	83	19	18	3	52	12	
CCCCCCCC[C@@H]1NC(=O)[C@@H]2CCCN2C(=O)[C@H]2CCCN2C(=O)[C@H](Cc2ccc(O)cc2)NC(=O)[C@H](CCCCN)NC(=O)[C@H](CCC(N)=O)NC(=O)[C@@H]2CCCN2C(=O)[C@@H]2CCCN2C(=O)[C@H]([C@@H](C)CC)NC(=O)[C@H](CO)NC(=O)[C@H](C)NC(=O)[C@H]([C@@H](C)O)NC(=O)[C@H](CCC(=O)O)NC1=O [Ex. 156] (HELM PEPTIDE1{[CCCCCCCC[C@H](N[*:1])C(=O)[*:2]].E.T.A.S.I.P.P.Q.K.Y.[dP].P}$PEPTIDE1,PEPTIDE1,1:R1-13:R2$$$V2.0)	0	15	8.12	5	17	0	0	46	7	
